In ChEMBL document CHEMBL3112450, “Synthesis and in vitro antitumor evaluation of primary amine substituted quinazoline linked benzimidazole” (Bioorg Med Chem Lett, 2014):

Tests used:
Assay type in all cases: functional
RPMI-8226 = assay: Cytotoxicity against human RPMI8226 cells assessed as growth inhibition at 10 uM after 48 hrs by SRB assay; details: RPMI-8226, 48 h, read-out: GI
SW-620 [1] = assay: Cytotoxicity against human SW620 cells assessed as growth inhibition at 10 uM after 48 hrs by SRB assay; details: SW-620, 48 h, read-out: GI
MCF7 [2] = assay: Cytotoxicity against human MCF7 cells assessed as growth inhibition at 10 uM after 48 hrs by SRB assay; details: MCF7, 48 h, read-out: GI
BT-549 = assay: Cytotoxicity against human BT549 cells assessed as growth inhibition at 10 uM after 48 hrs by SRB assay; details: BT-549, 48 h, read-out: GI
SN12C [3] = assay: Cytotoxicity against human SN12C cells after 48 hrs by SRB assay
SR = assay: Cytotoxicity against human SR cells assessed as cell growth at 10^-4 M after 48 hrs by SRB assay; details: read-out: Activity
LOX IMVI = assay: Cytotoxicity against human LOXIMVI cells assessed as cell growth at 10^-7 M after 48 hrs by SRB assay; details: read-out: Activity
DU-145 [4] = assay: Cytotoxicity against human DU145 cells assessed as cell growth at 10^-7 M after 48 hrs by SRB assay; details: DU-145, 48 h, read-out: Activity
M14 = assay: Cytotoxicity against human M14 cells assessed as cell growth at 10^-8 M after 48 hrs by SRB assay; details: M14, 48 h, read-out: Activity
K562 = assay: Cytotoxicity against human K562 cells assessed as cell growth at 10^-6 M after 48 hrs by SRB assay; details: K562, 48 h, read-out: Activity
SN12C [5] = assay: Cytotoxicity against human SN12C cells assessed as cell growth at 10^-7 M after 48 hrs by SRB assay; details: read-out: Activity
RXF 393 = assay: Cytotoxicity against human RXF393 cells assessed as cell growth at 10^-8 M after 48 hrs by SRB assay; details: RXF 393, 48 h, read-out: Activity
OVCAR-8 = assay: Cytotoxicity against human OVCAR8 cells assessed as cell growth at 10^-8 M after 48 hrs by SRB assay; details: OVCAR-8, 48 h, read-out: Activity
MOLT-4 = assay: Cytotoxicity against human MOLT4 cells assessed as cell growth at 10^-7 M after 48 hrs by SRB assay; details: MOLT-4, 48 h, read-out: Activity
[6] = Cytotoxicity against human OVCAR5 cells after 48 hrs by SRB assay; details: OVCAR-5, 48 h
T47D = assay: Cytotoxicity against human T47D cells assessed as cell growth at 10^-7 M after 48 hrs by SRB assay; details: read-out: Activity
DU-145 [7] = assay: Cytotoxicity against human DU145 cells assessed as cell growth at 10^-4 M after 48 hrs by SRB assay; details: DU-145, 48 h, read-out: Activity
NCI-H460 [8] = assay: Cytotoxicity against human NCI-H460 cells assessed as cell growth at 10^-7 M after 48 hrs by SRB assay; details: NCI-H460, 48 h, read-out: Activity
[9] = Cytotoxicity against human Hs578T cells after 48 hrs by SRB assay; details: Hs-578T
NCI-H460 [10] = assay: Cytotoxicity against human NCI-H460 cells assessed as cell growth at 10^-6 M after 48 hrs by SRB assay; details: NCI-H460, 48 h, read-out: Activity
MDA-MB-231 [11] = assay: Cytotoxicity against human MDA-MB-231 cells after 48 hrs by SRB assay; details: MDA-MB-231, 48 h
OVCAR-3 [12] = assay: Cytotoxicity against human OVCAR3 cells assessed as cell growth at 10^-8 M after 48 hrs by SRB assay; details: OVCAR-3, 48 h, read-out: Activity
MDA-MB-231 [13] = assay: Cytotoxicity against human MDA-MB-231 cells assessed as cell growth at 10^-8 M after 48 hrs by SRB assay; details: MDA-MB-231, 48 h, read-out: Activity
NCI-H322M = assay: Cytotoxicity against human NCI-H322M cells assessed as cell growth at 10^-6 M after 48 hrs by SRB assay; details: read-out: Activity
SW-620 [14] = assay: Cytotoxicity against human SW620 cells assessed as cell growth at 10^-8 M after 48 hrs by SRB assay; details: SW-620, 48 h, read-out: Activity
HOP-92 [15] = assay: Cytotoxicity against human HOP92 cells assessed as cell growth at 10^-4 M after 48 hrs by SRB assay; details: HOP-92, 48 h, read-out: Activity
SK-MEL-28 = assay: Cytotoxicity against human SK-MEL-28 cells assessed as cell growth at 10^-8 M after 48 hrs by SRB assay; details: SK-MEL-28, 48 h, read-out: Activity
SK-OV-3 = assay: Cytotoxicity against human SKOV3 cells assessed as cell growth at 10^-6 M after 48 hrs by SRB assay; details: SK-OV-3, 48 h, read-out: Activity
KM12 = assay: Cytotoxicity against human KM12 cells assessed as cell growth at 10^-4 M after 48 hrs by SRB assay; details: KM12, 48 h, read-out: Activity
OVCAR-3 [16] = assay: Cytotoxicity against human OVCAR3 cells assessed as cell growth at 10^-4 M after 48 hrs by SRB assay; details: OVCAR-3, 48 h, read-out: Activity
NCI-H226 = assay: Cytotoxicity against human NCI-H226 cells assessed as cell growth at 10^-6 M after 48 hrs by SRB assay; details: NCI-H226, 48 h, read-out: Activity
A549 = assay: Cytotoxicity against human A549 cells assessed as cell growth at 10^-4 M after 48 hrs by SRB assay; details: A549, 48 h, read-out: Activity
MCF7 [17] = assay: Cytotoxicity against human MCF7 cells assessed as cell growth at 10^-6 M after 48 hrs by SRB assay; details: MCF7, 48 h, read-out: Activity
HOP-92 [18] = assay: Cytotoxicity against human HOP92 cells after 48 hrs by SRB assay; details: HOP-92, 48 h
UACC-62 = assay: Cytotoxicity against human UACC62 cells after 48 hrs by SRB assay; details: UACC-62, 48 h
SK-MEL-2 [19] = assay: Cytotoxicity against human SK-MEL-2 cells after 48 hrs by SRB assay; details: SK-MEL-2, 48 h
HCT-116 = assay: Cytotoxicity against human HCT116 cells assessed as cell growth at 10^-4 M after 48 hrs by SRB assay; details: HCT-116, 48 h, read-out: Activity
SK-MEL-2 [20] = assay: Cytotoxicity against human SK-MEL-2 cells assessed as cell growth at 10^-6 M after 48 hrs by SRB assay; details: SK-MEL-2, 48 h, read-out: Activity
[21] = Cytotoxicity against human EKVX cells assessed as cell growth at 10^-5 M after 48 hrs by SRB assay; details: read-out: Activity

## C=CCn1c(C)nc2cc(Nc3nc(NCCO)nc4ccccc34)ccc21
RPMI-8226
  inhibition of growth at 10 µM: 30%
SW-620 [1]
  inhibition of growth at 10 µM: 30%
MCF7 [2]
  inhibition of growth at 10 µM: 30%

## C=CCn1c(C)nc2ccc(Nc3nc(Nc4ccc5nc(C)n(CC=C)c5c4)c4ccccc4n3)cc21
BT-549
  inhibition of growth at 10 µM: 30%
SN12C [3]
  GI50: 1620 nM
  LC50: 5450 nM
  TGI: 2980 nM
SR
  growth at 100 µM: -2%
LOX IMVI
  growth at 0.1 µM: 91%
DU-145 [4]
  growth at 0.1 µM: 100%
M14
  growth at 0.01 µM: 96%
K562
  growth at 1 µM: 68%
SN12C [5]
  growth at 0.1 µM: 94%
RXF 393
  growth at 0.01 µM: 95%
OVCAR-8
  growth at 0.01 µM: 97%
MOLT-4
  growth at 0.1 µM: 94%
[6]
  GI50: 1700 nM
  LC50: 5620 nM
  TGI: 3090 nM
T47D
  growth at 0.1 µM: 92%
DU-145 [7]
  growth at 100 µM: -75%
NCI-H460 [8]
  growth at 0.1 µM: 101%
[9]
  GI50: 1710 nM
  TGI: 4080 nM
NCI-H460 [10]
  growth at 1 µM: 97%
MDA-MB-231 [11]
  GI50: 1340 nM
  LC50: 5120 nM
  TGI: 2620 nM
OVCAR-3 [12]
  growth at 0.01 µM: 99%
MDA-MB-231 [13]
  growth at 0.01 µM: 92%
NCI-H322M
  growth at 1 µM: 92%
SW-620 [14]
  growth at 0.01 µM: 98%
HOP-92 [15]
  growth at 100 µM: -47%
SK-MEL-28
  growth at 0.01 µM: 98%
SK-OV-3
  growth at 1 µM: 96%
KM12
  growth at 100 µM: -31%
OVCAR-3 [16]
  growth at 100 µM: -48%
NCI-H226
  growth at 1 µM: 94%
A549
  growth at 100 µM: -14%
MCF7 [17]
  growth at 1 µM: 85%
HOP-92 [18]
  GI50: 1370 nM
  TGI: 2930 nM
UACC-62
  GI50: 1550 nM
  TGI: 2890 nM
UACC-62; read-out: LC50 (the source's name)
  CC50: 5380 nM
SK-MEL-2 [19]
  GI50: 1960 nM
  TGI: 3540 nM
HCT-116
  growth at 100 µM: 1%
SK-MEL-2 [20]
  growth at 1 µM: 107%

## C=CCn1c(C)nc2cc(Nc3nc(Nc4ccc5nc(C)n(CC=C)c5c4)c4ccccc4n3)ccc21
SN12C [3]
  GI50: 1280 nM
  TGI: 2900 nM
SR
  growth at 100 µM: 2%
LOX IMVI
  growth at 0.1 µM: 96%
DU-145 [4]
  growth at 0.1 µM: 99%
M14
  growth at 0.01 µM: 100%
K562
  growth at 1 µM: -45%
SN12C [5]
  growth at 0.1 µM: 92%
RXF 393
  growth at 0.01 µM: 101%
OVCAR-8
  growth at 0.01 µM: 100%
MOLT-4
  growth at 0.1 µM: 91%
[6]
  GI50: 400 nM
  TGI: 1490 nM
T47D
  growth at 0.1 µM: 94%
DU-145 [7]
  growth at 100 µM: -98%
NCI-H460 [8]
  growth at 0.1 µM: 103%
[9]
  GI50: 2160 nM
  LC50: > 100000 nM
  TGI: 5160 nM
NCI-H460 [10]
  growth at 1 µM: -53%
MDA-MB-231 [11]
  GI50: 205 nM
  TGI: 417 nM
OVCAR-3 [12]
  growth at 0.01 µM: 100%
MDA-MB-231 [13]
  growth at 0.01 µM: 111%
NCI-H322M
  growth at 1 µM: 43%
SW-620 [14]
  growth at 0.01 µM: 97%
HOP-92 [15]
  growth at 100 µM: -84%
SK-MEL-28
  growth at 0.01 µM: 108%
SK-OV-3
  growth at 1 µM: 97%
KM12
  growth at 100 µM: -77%
NCI-H226
  growth at 1 µM: 89%
MCF7 [17]
  growth at 1 µM: -63%
HOP-92 [18]
  GI50: 780 nM
  LC50: 4690 nM
  TGI: 2080 nM
UACC-62
  GI50: 1260 nM
  TGI: 2590 nM
SK-MEL-2 [19]
  GI50: 1440 nM
  TGI: 3080 nM
HCT-116
  growth at 100 µM: 3%
SK-MEL-2 [20]
  growth at 1 µM: 74%

## C=CCn1c(C)nc2cc(Nc3nc(Nc4ccc5nc(C)n(CC=C)c5c4)nc4ccccc34)ccc21
[21]
  growth at 10 µM: 97.1%
